# In the supplement of paper PMC4862054:
# Test system: CAL-51
# Assay: drug sensitivity score (DSS), CellTox Green (DSS (AUC-based score)); higher = stronger drug effect (viability inhibition or cytotoxicity); extreme values may be limits of the assay
# Conditions: incubation time: 72 h
# Procedure, shortened: (§1)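 For 72 h, breast cancer cell lines seeded at 20 µl suspension per well in 384-well plates were incubated with compound at 5 concentrations in 10-fold steps spanning a 10,000-fold range that differed by compound. The first reading was CellTox Green fluorescence at 485/520 nm, and the second was CellTiter-Glo luminescence after 10 min at room temperature. Both were normalised per plate to 0.1 % DMSO and a positive kill control, and the drug sensitivity score was obtained from the area under the fitted dose-response curve.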
row,SMILES,drug sensitivity score
1,Nc1ncn([C@H]2C[C@H](O)[C@@H](CO)O2)c(=O)n1 [Decitabine],7.63
2,CC[C@@H]1C(=O)N(C)c2cnc(Nc3ccc(C(=O)NC4CCN(C)CC4)cc3OC)nc2N1C1CCCC1 [BI 2536],16.7
3,CC[C@H](C)C(=O)O[C@H]1C[C@H](O)C=C2C=C[C@H](C)[C@H](CC[C@@H](O)C[C@@H](O)CC(=O)O)[C@H]21 [Pravastatin],5.33
4,O=C(O)C(=O)O.[NH-][C@@H]1CCCC[C@H]1[NH-].[Pt+2] [Oxaliplatin],0
5,CCN(CC)CCCC(C)Nc1c2ccc(Cl)cc2nc2ccc(OC)cc12 (stereo not drawn) [Mepacrine],0
6,Cc1ccc(-c2cc(C(F)(F)F)nn2-c2ccc(S(N)(=O)=O)cc2)cc1 [Celecoxib],0
7,COc1cc2c(NC3CCN(C(C)C)CC3)nc(C3CCCCC3)nc2cc1OCCCN1CCCC1 [UNC0638],9.03
8,COc1cc([C@@H]2c3cc4c(cc3[C@@H](O[C@@H]3O[C@@H]5CO[C@@H](c6cccs6)O[C@H]5[C@H](O)[C@H]3O)[C@H]3COC(=O)[C@H]23)OCO4)cc(OC)c1O [Teniposide],11.8
9,CCc1cncnc1N1CCN(Cc2nc3ccc(C(F)(F)F)cc3[nH]2)CC1,0

# Test system: CAL-85-1
# Assay: as above
# Conditions: incubation time: 72 h
# Procedure, shortened: as §1
row,SMILES,drug sensitivity score
1,CC(=O)Nc1cccc(-n2c(=O)n(C3CC3)c(=O)c3c(Nc4ccc(I)cc4F)n(C)c(=O)c(C)c32)c1 [Trametinib],7.34
2,C=CCc1cccc(/C=N/NC(=O)CN2CCN(Cc3ccccc3)CC2)c1O [PAC-1],0
3,Nc1nc(F)nc2c1ncn2[C@@H]1O[C@H](CO)[C@@H](O)[C@@H]1O [Fludarabine],0
4,Nc1ncn([C@H]2C[C@H](O)[C@@H](CO)O2)c(=O)n1 [Decitabine],2.72
5,CC[C@@H]1C(=O)N(C)c2cnc(Nc3ccc(C(=O)NC4CCN(C)CC4)cc3OC)nc2N1C1CCCC1 [BI 2536],10.3
6,CC[C@H](C)C(=O)O[C@H]1C[C@H](O)C=C2C=C[C@H](C)[C@H](CC[C@@H](O)C[C@@H](O)CC(=O)O)[C@H]21 [Pravastatin],0
7,O=C(O)C(=O)O.[NH-][C@@H]1CCCC[C@H]1[NH-].[Pt+2] [Oxaliplatin],0
8,CCN(CC)CCCC(C)Nc1c2ccc(Cl)cc2nc2ccc(OC)cc12 (stereo not drawn) [Mepacrine],0
9,Cc1ccc(-c2cc(C(F)(F)F)nn2-c2ccc(S(N)(=O)=O)cc2)cc1 [Celecoxib],0
10,COc1cc2c(NC3CCN(C(C)C)CC3)nc(C3CCCCC3)nc2cc1OCCCN1CCCC1 [UNC0638],6.93
11,COc1cc([C@@H]2c3cc4c(cc3[C@@H](O[C@@H]3O[C@@H]5CO[C@@H](c6cccs6)O[C@H]5[C@H](O)[C@H]3O)[C@H]3COC(=O)[C@H]23)OCO4)cc(OC)c1O [Teniposide],7.07
12,CCc1cncnc1N1CCN(Cc2nc3ccc(C(F)(F)F)cc3[nH]2)CC1,0
13,COc1cc2nccc(Oc3ccc(NC(=O)Nc4cc(C)on4)c(Cl)c3)c2cc1OC [Tivozanib],0

# Test system: DU-4475
# Assay: as above
# Conditions: incubation time: 72 h
# Procedure, shortened: as §1
row,SMILES,drug sensitivity score
1,CC(=O)Nc1cccc(-n2c(=O)n(C3CC3)c(=O)c3c(Nc4ccc(I)cc4F)n(C)c(=O)c(C)c32)c1 [Trametinib],7.36
2,C=CCc1cccc(/C=N/NC(=O)CN2CCN(Cc3ccccc3)CC2)c1O [PAC-1],0
3,Nc1nc(F)nc2c1ncn2[C@@H]1O[C@H](CO)[C@@H](O)[C@@H]1O [Fludarabine],0
4,Nc1ncn([C@H]2C[C@H](O)[C@@H](CO)O2)c(=O)n1 [Decitabine],0
5,CC[C@@H]1C(=O)N(C)c2cnc(Nc3ccc(C(=O)NC4CCN(C)CC4)cc3OC)nc2N1C1CCCC1 [BI 2536],0
6,CC[C@H](C)C(=O)O[C@H]1C[C@H](O)C=C2C=C[C@H](C)[C@H](CC[C@@H](O)C[C@@H](O)CC(=O)O)[C@H]21 [Pravastatin],0
7,O=C(O)C(=O)O.[NH-][C@@H]1CCCC[C@H]1[NH-].[Pt+2] [Oxaliplatin],0
8,CCN(CC)CCCC(C)Nc1c2ccc(Cl)cc2nc2ccc(OC)cc12 (stereo not drawn) [Mepacrine],0
9,Cc1ccc(-c2cc(C(F)(F)F)nn2-c2ccc(S(N)(=O)=O)cc2)cc1 [Celecoxib],0
10,COc1cc2c(NC3CCN(C(C)C)CC3)nc(C3CCCCC3)nc2cc1OCCCN1CCCC1 [UNC0638],0
11,COc1cc([C@@H]2c3cc4c(cc3[C@@H](O[C@@H]3O[C@@H]5CO[C@@H](c6cccs6)O[C@H]5[C@H](O)[C@H]3O)[C@H]3COC(=O)[C@H]23)OCO4)cc(OC)c1O [Teniposide],4.49
12,CCc1cncnc1N1CCN(Cc2nc3ccc(C(F)(F)F)cc3[nH]2)CC1,0
13,COc1cc2nccc(Oc3ccc(NC(=O)Nc4cc(C)on4)c(Cl)c3)c2cc1OC [Tivozanib],0

# Test system: HCC1143
# Assay: as above
# Conditions: incubation time: 72 h
# Procedure, shortened: as §1
row,SMILES,drug sensitivity score
1,CC(=O)Nc1cccc(-n2c(=O)n(C3CC3)c(=O)c3c(Nc4ccc(I)cc4F)n(C)c(=O)c(C)c32)c1 [Trametinib],0
2,C=CCc1cccc(/C=N/NC(=O)CN2CCN(Cc3ccccc3)CC2)c1O [PAC-1],0
3,Nc1nc(F)nc2c1ncn2[C@@H]1O[C@H](CO)[C@@H](O)[C@@H]1O [Fludarabine],0
4,Nc1ncn([C@H]2C[C@H](O)[C@@H](CO)O2)c(=O)n1 [Decitabine],0
5,CC[C@@H]1C(=O)N(C)c2cnc(Nc3ccc(C(=O)NC4CCN(C)CC4)cc3OC)nc2N1C1CCCC1 [BI 2536],0
6,CC[C@H](C)C(=O)O[C@H]1C[C@H](O)C=C2C=C[C@H](C)[C@H](CC[C@@H](O)C[C@@H](O)CC(=O)O)[C@H]21 [Pravastatin],0
7,O=C(O)C(=O)O.[NH-][C@@H]1CCCC[C@H]1[NH-].[Pt+2] [Oxaliplatin],0
8,CCN(CC)CCCC(C)Nc1c2ccc(Cl)cc2nc2ccc(OC)cc12 (stereo not drawn) [Mepacrine],0
